The source of these data is patent US7169787B2, “7-azaindoles, use thereof as phosphodiesterase 4 inhibitors and method for producing the same” (Elbion AG, priority 2000, dated 2007).

One data set has as its target PDE 4. The data set is described as follows: Inhibition of phosphodiesterase 4 (enzyme preparation from human PMNL, [3H]-cAMP). The class given is biochemical. As to conditions: PDE 4 from human PMNL cytosol, 0.5 μM [3H]-cAMP. The method, then:
The PDE 4 activity is determined in enzyme preparations from human polymorphonuclear […] (PMNL) and the PDE 2, 3 and 5 activity is determined with PDE from human thrombocytes. Human blood was anti-coagulated with citrate. By centrifuging at 700×g for 20 minutes at room temperature, the thrombocyte-rich plasma in the supernatant is separated from the erythrocytes and leukocytes. The thrombocytes are lysed by ultrasound and used in the PDE 3 and PDE 5 assays. For the determination of the PDE 2 activity, the cytosolic thrombocyte fraction is purified on an anionic exchange column by means of NaCl gradients and the PDE 2 peak is obtained for the assay. The PMNLs for the PDE 4 determination are isolated by a subsequent dextran sedimentation, followed by a gradient centrifugation with Ficoll-Paque. After the cells have been washed twice, the erythrocytes, still contained, are lysed within 6 minutes at 4° C. by the addition of 10 mL of hypotonic buffer (155 mM of NH4Cl, 10 mM of NaHCO3, 0.1 mM of EDTA, pH=7.4). The PMNLs, which are still intact, are washed twice with PBS and lysed with ultrasound. The supernatant of a one-hour centrifugation at 4° C. at 48,000×g contains the cytosolic fraction of the PDE 4 and is used for the PDE 4 measurements.
The phosphodiesterase activity is determined using the method described by Thompson et al. with some modifications (Thompson, W. J. and M. M. Appleman, Assay of cyclic nucleotide phosphodiesterase and resolution of multiple molecular forms of the enzyme, Adv. Cycl. Nucl. Res. 1979, 10, 69–92).
The reaction mixtures contain 50 mM of tris hydrochloride (pH 7.4), 5 mM of magnesium chloride, the inhibitors in various concentrations, the corresponding enzyme preparation as well as the further components necessary for determining the individual isoenzymes (see below). The reaction is started by the addition of the substrate, 0.5 μM of [^3H]-cAMP or [^3H]-cGMP (approximately 6000 CPM per test). The final volume is […]. Test substances are mixed as stock solutions in DMSO. The DMSO concentration in the reaction mixture is 1% v/v. The PDE activity is not affected by this concentration of DMSO. After the reaction is started by the addition of substrate, samples are incubated for 30 minutes at 37° C. The reaction is stopped by heating the test tubes for 2 minutes at 110° C. The samples remain for a further 10 minutes in ice. The addition of 30 μL of 5′-nucleotidase (1 mg/mL, from a poisonous snake suspension from Crotalus adamanteus) is followed by a 10-minutes incubation at 37° C. The samples are stopped on ice, in each case 400 μL of a mixture of Dowex, water and ethanol (1+1+1) is added, mixed well and incubated once again for 15 minutes on ice. The reaction vessels are centrifuged for 20 minutes at 3000×g. Aliquots of the supernatant (200 μL) are transferred directly to scintillation vessels. After the addition of 3 mL of scintillator, the samples are measured in the beta counter.
[^3H]-cAMP is used as substrate for the determination of the PDE 4, 3 and 2 activity and [^3H]-cGMP is used as substrate for the determination of the PDE 5 activity. The enzyme activities, which are nonspecific in each case, are determined in the presence of 100 μM of Rolipram for the determination of PDE 4 and in the presence of 100 μM of IBMX for the determination of the PDE 3 and 5 and subtracted from the test values. The incubation formulations of the PDE 3 assays contained 10 μM of Rolipram, in order to inhibit possible contaminations by PDE 4. The PDE 2 is tested with an SPA assay of the Amersham Company. The assay is carried out in the presence of the activator of the PDE 2 (5 μM of cGMP).

Data set [1] has as its system actively sensitized Brown Norway Rats. Briefly: Inhibition of the late phase eosinophilia 48 hours after inhalative ovalbumin challenge. The class given is in vivo, rat. As to conditions: 2 h before allergen challenge, BAL 48 h after challenge. On the procedure:
The inhibition of pulmonary eosinophilia infiltration by the inventive substances is tested on male Brown Norway Rats (200–250 g), which had been actively sensitized against ovalbumin (OVA). The rats were sensitized by subcutaneous injections of a suspension of 10 μg OVA together with 20 mg of aluminum hydroxide as adjuvant in 0.5 mL of physiological salt solution per animal on days 1, 14 and 21. In addition, the animals at the same time received Bordetella pertussis vaccine dilution injected 0.25 mL i.p. per animal. On the 28th day of the experiment, the animals are placed individually in open 1 L Plexiglas boxes, which are connected to a head-nose exposure device. The animals are exposed to an aerosol of 1.0% ovalbumin suspension (allergen challenge). The ovalbumin aerosol is produced by a nebulizer (Bird Micronebulizer, Palm Springs Calif., USA), which is operated with compressed air (0.2 MPa). The exposure time is one hour, normal controls being nebulized also for one hour with an aerosol of 0.9% salt solution.
Forty-eight hours after the allergen challenge, there is a massive migration of eosinophilic granulocytes into the lungs of the animals. At this time, the animals are anesthetized with an excess of ethyl urethane (1.5 g/kg of body weight i.p.) and a bronchoalveolar lavage (BAL) with 3×4 mL of Hank's balance solution is carried out. The total cell count and the number of eosinophilic granulocytes of the pooled BAL liquid are subsequently determined with an automatic cell differentiation instrument (Bayer Diagnostics Technicon HIE). For each animal, the eosinophiles (EOS) in the BAL are calculated in millions/animal: EOS/μl×BAL recovery (mL)=EOS/animal.
For each test, 2 control groups were run (nebulization with physiological salt solution and nebulization with OVA solution).
The percentage inhibition of the eosinophilia of the experimental group, treated with substance, was calculated according to the following formula: {((OVAC−SC)−(OVAD−SC))/(OVAC−SC)}×100%=% inhibition (SC=vehicle-treated control group challenged with 0.9% salt solution; OVAC=vehicle-treated control group challenged with 1% ovalbumin suspension; OVAD=substance-treated experimental group challenged with 1% ovalbumin suspension)
The test substances are applied i.p. or orally as a suspension in 10% polyethylene glycol 300 and 0.5% 5-hydroxyethylcellulose for two hours before the allergen challenge. The control groups are treated with the vehicle in accordance with the application form of the test substance.

Data set [2] relates to release of TNFα from cells of nasal polyps. The data set is described as follows: Inhibition of the release of TNFα from cells of nasal polyps (anti-IgE stimulated, ELISA). The class given is cell-based. As to conditions: Homo sapiens; concentration 1.0 μmole/L; anti-IgE stimulated nasal polyp cells. The method, then: The experimental arrangement corresponds essentially to the method described by Campbell, A. M. and J. Bousquet (Anti-allergic activity of H1-blockers, Int. Arch. Allergy Immunol., 1993, 101, 308–310). Nasal polyps form the starting material (material from patients, who had been subjected to a surgical treatment).
The tissue is washed with RPMI 1640 and subsequently digested with protease (2.0 mg/mL), collagenase (1.5 mg/mL), hyaluronidase (0.75 mg/mL), and DNAse (0.05 mg/mL) for two hours at 37° C. (1 g of tissue and 4 mL of RPMI 1640 with enzymes). The cells obtained, a mixture of epithelial cells, monocytes, macrophages, lymphocytes, fibroblasts and granulocytes, are filtered and washed by being centrifuged repeatedly in culture solution and sensitized passively by the addition of human IgE and the cell suspension is brought to a concentration of 2 million cells/mL in RPMI 1640 (supplemented by antibiotics, 10% fetal calf serum, 2 mM of glutamine and 25 mM of Hepes). This suspension is distributed on six-well cell culture plates (1 ml/well). The cells are pre-incubated for 30 minutes with the test substances in different final concentrations and subsequently stimulated to release TNFα by the addition of anti-IgE (7.2 μg/mL). The maximum release into the culture medium takes place after about 18 hours. During this period, the cells are incubated at 37° C. and 5% carbon dioxide. The culture medium (supernatant) is recovered by centrifuging (five minutes at 4000 rpm) and kept at −70° C. until the cytokin is determined. The TNFα in the supernatant is determined with so-called sandwich ELISAs (basic material Pharmingen), with which cytokin concentrations ranging from 30 to 1000 pg/mL can be determined.
Cells, not stimulated with anti IgE, hardly produce any TNFα; on the other hand, stimulated cells secrete large amounts of TNFα, which can be reduced, for example, by PDE 4 inhibitors as a function of the dose. From the percentage inhibition (TNFα release by the cells, stimulated with anti IgE=100%) of the substances tested at different concentrations, the IC50 (concentration at 50% inhibition) is calculated.
For orientation: In an ELISA, binding on a coated surface is turned into a signal by an enzyme label.

Counter-ions that a name gives are not always drawn.

As a reminder, the melting point is the temperature, or range, at which the solid turns liquid. As to `O=C(Nc1ccncc1)C(=O)c1cn(Cc2ccc(F)cc2)c2ncccc12` (as salt: HCl) [Example 13], the melting point was 275 to 278 °C (dec.).
The IC50 is the concentration at which inhibition is half-maximal. As for `Cc1[nH]c(=O)[nH]c(=O)c1NC(=O)C(=O)c1cn(Cc2ccc(F)cc2)c2ncccc12` [Example 37], the melting point is 297 to 300 °C (dec.). At PDE 4, this compound came in with a concentration for half-maximal inhibition (IC50) of 0.987 µM.
For `O=C(Nc1ccncc1)C(=O)c1cn(Cc2ccc(F)cc2)c2ncccc12` [Example 13], the concentration for half-maximal inhibition (IC50) against PDE 4 worked out at 0.058 µM.
What is called inhibition is the relative decrease from the control value, in per cent. Low values mean a response near the control, high ones a response far below the control. For the compound `O=C(Nc1c(Cl)cncc1Cl)C(=O)c1cn(Cc2ccc(Cl)cc2)c2ncccc12` [Example 16], the melting point lay within 205 to 207 °C. Besides, the “Inhibition of Eosinophilia” value in data set [1] (10 mg/kg i.p.) worked out at 100%. For the same compound, the “Inhibition of Eosinophilia” value in data set [1] (10 mg/kg p.o.) was 70%. The IC50 against PDE 4 turned out to be 0.002 µM. The compound further displayed an inhibition at 1 µM in data set [2] of 90%.
`O=C(Nc1c(Cl)cncc1Cl)C(=O)c1cn(CC2CC2)c2ncccc12` [Example 25] came in with a melting point of 215 to 218 °C. Also, the IC50 on PDE 4 turned out to be 0.004 µM.
On the same counts, the results for `Cc1noc(C)c1Cn1cc(C(=O)C(=O)Nc2c(Cl)cncc2Cl)c2cccnc21` [Example 32] are 196 to 198 °C and 0.113 µM.
`C=C(C)Cn1cc(C(=O)C(=O)Nc2c(Cl)cncc2Cl)c2cccnc21` [Example 28] displayed a melting point of 114 to 116 °C. The same compound came in with a half-inhibitory concentration (IC50) at PDE 4 of 0.003 µM.
On the same counts, the results for `COc1cccc(Cn2cc(C(=O)C(=O)Nc3c(Cl)cncc3Cl)c3cccnc32)c1` [Example 12, N-(3,5-Dichloropyridine-4-yl)-[1-(3-methoxybenzyl)-7-azaindole-3-yl]-glyoxylic Acid Amide] are 165 to 167 °C and 0.005 µM.
The corresponding values for `O=C(Nc1c(Cl)cncc1Cl)C(=O)c1cn(Cc2cccc(O)c2)c2ncccc12` [Example 24] are 241 to 244 °C and 0.003 µM.
On the same counts, the results for `O=C(Nc1c(Cl)cccc1Cl)C(=O)c1cn(Cc2ccc(Cl)cc2)c2ncccc12` [Example 18] are 166 to 168 °C and 0.031 µM.
For the compound `O=C(Nc1ccncc1)C(=O)c1cn(Cc2ccc(Cl)cc2)c2ncccc12` (as salt: HCl) [Example 15], the melting point was 280 to 283 °C (dec.).
`COc1ccc(Cn2cc(C(=O)C(=O)Nc3c(Cl)cncc3Cl)c3cccnc32)cc1` [Example 17] showed a melting point of 165 to 167 °C. Also, in data set [1] (10 mg/kg i.p.), the “Inhibition of Eosinophilia” value was found to be 75%. Besides, the “Inhibition of Eosinophilia” value in data set [1] (10 mg/kg p.o.) turned out to be 32%. At PDE 4, this compound displayed a half-maximal inhibitory concentration (IC50) of 0.008 µM. Besides, in data set [2], the inhibition at 1 µM was 91%.
Compound `O=C(Nc1c(Cl)cncc1Cl)C(=O)c1cn(Cc2ccc(O)cc2)c2ncccc12` [Example 23] displayed a melting point of 140 to 142 °C. In addition, at PDE 4, it took 0.001 µM to reach half-maximal inhibition (IC50).
Regarding `O=C(NCc1ccncc1)c1cn(CC2CC2)c2ncccc12` [Example 1, N-(4-Pyridylmethyl)-1-cyclopropylmethyl-7-azaindole-3-carboxylic Acid Amide], at PDE 4, it took 0.71 µM to reach half-maximal inhibition (IC50).
On the same count and under the same terms, then `CC(C)Cn1cc(C(=O)Nc2c(Cl)cncc2Cl)c2cccnc21` [Example 2], with 1.4 µM; and `O=C(Nc1ccncc1)C(=O)c1cn(Cc2ccc(Cl)cc2)c2ncccc12` [Example 15], with 0.031 µM.
As for `CCCCCCn1cc(C(=O)C(=O)Nc2c(Cl)cncc2Cl)c2cccnc21` [Example 26], the melting point is 165 to 167 °C. Moreover, the concentration for half-maximal inhibition (IC50) against PDE 4 is 0.021 µM.
